Tests used:
[1] = Compound stability in a biological matrix (mouse plasma); assay type: in vitro ADME; settings: 10 μg/mL, 37° C., LC-MS/MS
Procedure: (§1) A compound was dissolved in DMSO as a 1 mg/mL stock solution. An ACN solution of the compound at 100 μg/mL was prepared from the stock solution, 10 μL of which was added to a biological matrix (90 μL) to the final concentration of 10 μg/mL for the compound. The mixtures of the compound in a biological matrix were incubated at 37° C. for 0, 0.5, 1, or 4 h. At each time point, ACN (900 μL) was added to a mixture. After the mixture was centrifuged at 15,000 rpm for 5 min, the supernatant was mixed with the same volume of H2O (1% TFA) and then analyzed by LC-MS/MS. The results are summarized in Table 3, wherein Cbz-AAM is (2R,3S,4R,5S)-6-((4-((S)-6-acetamido-2-(((benzyloxy)carbonyl)amino)hexan-amido)phenyl)(phenyl)methoxy)-2-(acetoxymethyl)-5-(2-azidoacetamido)tetrahydro-2H-pyran-3,4-diyl diacetate.

[2] = Compound stability in a biological matrix (human plasma); assay type: in vitro ADME; settings: 10 μg/mL, 37° C., LC-MS/MS
Procedure: as §1

A549 cells = assay: Flow cytometry analysis of cell labeling (azido labeling efficiency); assay type: cell-based; settings: Homo sapiens; A549 cells (lung); azido compound 25 μM, 48 h; mean fluorescence of live cells compared with PBS negative control
Procedure: Cells (2.0×10^6 cells/mL, 2 mL) were seeded in a 6-well culture plate and attached at 37° C. overnight. After washed thrice with PBS, the cells were incubated with an azido compound (25 μM) at 37° C. for 48 h. After washed thrice with PBS, the cells were incubated with DBCO-biotin (50 μM) in 500 μL serum free DMEM at 37° C. for 1 h. The cells were washed thrice with PBS and then incubated with streptavidin-Cy5 (5 μg/mL) in 500 μL serum free DMEM at 37° C. for 1 h. The cells were washed thrice with PBS, followed by addition of 300 μL 1×trypsin/EDTA for digestion. The lifted cells were transferred to a 1.5 mL EP tube, centrifuge at 1,000 rpm for 3 min, and washed with PBS once. Finally, 500 μL PBS containing 4% PFA was added to the cell pellet to fix the cells. The cell suspension was transferred to a flow tube and mixed with 10 μL of a PI working solution (50 μg/mL) at room temperature for 30 min before being subjected to flow cytometry.
Flow cytometry was used to characterize the labeling efficiency of a compound provided herein. After cells were labeled with an azido group, DBCO-biotin was added to specifically react with the azido group. Avidin-Cy5 was added bind to the cell surface biotin for a flow cytometry analysis. Dead cells were stained with PI and excluded from the analysis. Results were presented as the mean fluorescence of live cells, compared with PBS as a negative control and Ac4ManNAz (AAM) as a positive control, Ac4ManNAz (AAM, CAS: 361154-30-5).

| Compound Remaining (%) Mouse 1 h [1] [%] | Compound Remaining (%) Mouse 4 h [1] [%] | Compound Remaining (%) Human 1 h [2] [%] | Compound Remaining (%) Human 4 h [2] [%] | SMILES | activity at 25 µM (A549 cells) [%] |
| --- | --- | --- | --- | --- | --- |
| 4 | 0.6 | 88 | 65 | CC(=O)NCCCC[C@H](NC(=O)OCc1ccccc1)C(=O)Nc1ccc(C(OC2OC(COC(C)=O)C(OC(C)=O)C(OC(C)=O)C2NC(=O)CN=[N+]=[N-])c2cccnc2)cc1 (stereo partly shown) [Compound A6] |  |
| 100 | 93 | 95 | 85 | CC(=O)NCCCC[C@H](NC(C)=O)C(=O)Nc1ccc(C(OC2OC(COC(=O)C3CCN(C)CC3)C(OC(C)=O)C(OC(C)=O)C2NC(=O)CN=[N+]=[N-])c2ccnn2C)cc1 (stereo partly drawn) [Compound A18, 1-O-(1-(2-Methylpyrazol-3-yl)-1-(4-(2(S),6-diacetamidohexanamido)phenyl)-methyl)-2-(2-azidoacetylamino)-2-deoxy-3,4-di-O-acetyl-6-O-(1-methylpiperidin-4-ylcarbonyl)-D-mannopyranoside] | 104 |
| 29 | 6 | 41 | 4 | CC(=O)NCCCC[C@H](NC(=O)OCc1ccccc1)C(=O)Nc1ccc(C(OC2OC(COC(C)=O)C(OC(C)=O)C(OC(C)=O)C2NC(=O)CN=[N+]=[N-])c2ccncc2)cc1 (stereo partly drawn) [Compound A7, 1-O-(1-(Pyridin-4-yl)-1-(4-(6-acetamido-2(S)-(benzyloxycarbonylamino)hexan-amido)phenyl)methyl)-2-(2-azidoacetylamino)-2-deoxy-3,4,6-tri-O-acetyl-D-mannopyranoside] |  |
| 2 | <2 | 2 | <2 | CC(=O)NCCCC[C@H](NC(C)=O)C(=O)Nc1ccc(C(OC2OC(COC(C)=O)C(OC(C)=O)C(OC(C)=O)C2NC(=O)CN=[N+]=[N-])c2nccs2)cc1 (stereo partly drawn) [Compound A15, 1-O-(1-(Thiazol-2-yl)-1-(4-(2(S),6-diacetamidohexanamido)phenyl)methyl)-2-(2-azidoacetylamino)-2-deoxy-3,4,6-tri-O-acetyl-D-mannopyranoside] | 318 |
| 72 | 19 |  |  | CC(=O)NCCCC[C@H](NC(=O)OCc1ccccc1)C(=O)Nc1ccc(C(OC2OC(COC(C)=O)C(OC(C)=O)C(OC(C)=O)C2NC(=O)CN=[N+]=[N-])c2cncs2)cc1 (stereo partly drawn) [Compound A3, 1-O-(1-(thiazol-5-yl)-1-(4-(6-acetamido-2(S)-(benzyloxycarbonylamino)-hexanamido)phenyl)methyl)-2-(2-azidoacetylamino)-2-deoxy-3,4,6-tri-O-acetyl-D-mannopyranoside] |  |
| 38 | 3 |  |  | CC(=O)NCCCC[C@H](NC(=O)OCc1ccccc1)C(=O)Nc1ccc(C(OC2OC(COC(=O)CN3CCCC3)C(OC(C)=O)C(OC(C)=O)C2NC(=O)CN=[N+]=[N-])c2ccnn2C)cc1 (stereo partly drawn) [Compound A11, 1-O-(1-(2-Methylpyrazol-3-yl)-1-(4-(6-acetamido-2(S)-(benzyloxycarbonyl-amino)hexanamido)phenyl)methyl)-2-(2-azidoacetylamino)-2-deoxy-3,4-di-O-acetyl-6-O-(pyrrolin-1-ylacetyl)-D-mannopyranoside] |  |

More lines, now with the values behind:

| SMILES | Compound Remaining (%) Mouse 1 h [1] [%] | Compound Remaining (%) Mouse 4 h [1] [%] | Compound Remaining (%) Human 1 h [2] [%] | Compound Remaining (%) Human 4 h [2] [%] | activity at 25 µM (A549 cells) [%] |
| --- | --- | --- | --- | --- | --- |
| CC(=O)NCCCC[C@H](NC(=O)OCc1ccccc1)C(=O)Nc1ccc(C(OC2O[C@H](COC(C)=O)[C@@H](OC(C)=O)[C@H](OC(C)=O)[C@@H]2NC(=O)CN=[N+]=[N-])c2ccccc2)cc1 (stereo partly drawn) [Cbz-AAM, (2R,3S,4R,5S)-6-((4-((S)-6-acetamido-2-(((benzyloxy)carbonyl)amino)hexan-amido)phenyl)(phenyl)methoxy)-2-(acetoxymethyl)-5-(2-azidoacetamido)tetrahydro-2H-pyran-3,4-diyl diacetate, reference compound] | 16 |  | 100 | 100 |  |
| CC(=O)NCCCC[C@H](NC(=O)OCc1ccccc1)C(=O)Nc1ccc(C(OC2OC(COC(=O)C3CCN(C)CC3)C(OC(C)=O)C(OC(C)=O)C2NC(=O)CN=[N+]=[N-])c2ccnn2C)cc1 (stereo partly drawn) [Compound A10, 1-O-(1-(2-Methylpyrazol-3-yl)-1-(4-(6-acetamido-2(S)-(benzyloxycarbonyl-amino)hexanamido)phenyl)methyl)-2-(2-azidoacetylamino)-2-deoxy-3,4-di-O-acetyl-6-O-(1-methylpiperidin-4-yl)carbonyl-D-mannopyranoside] | 81 | 21 | 62 | 5 | 166 |
| CC(=O)NCCCC[C@H](NC(=O)OCc1ccccc1)C(=O)Nc1ccc(C(OC2OC(COC(C)=O)C(OC(C)=O)C(OC(C)=O)C2NC(=O)CN=[N+]=[N-])c2ccsc2)cc1 (stereo partly drawn) [Compound A5, 1-O-(1-(Thien-3-yl)-1-(4-(6-acetamido-2(S)-(benzyloxycarbonylamino)hexan-amido)phenyl)methyl)-2-(2-azidoacetylamino)-2-deoxy-3,4,6-tri-O-acetyl-D-mannopyranoside] | 2 | 2 | 2 | 1 | 130 |
| CC(=O)NCCCC[C@H](NC(=O)OCc1ccccc1)C(=O)Nc1ccc(C(OC2OC(COC(=O)C3CCOCC3)C(OC(C)=O)C(OC(C)=O)C2NC(=O)CN=[N+]=[N-])c2ccnn2C)cc1 (stereo partly drawn) [Compound A9, 1-O-(1-(2-methylpyrazol-3-yl)-1-(4-(6-acetamido-2(S)-(benzyloxycarbonyl-amino)hexanamido)phenyl)methyl)-2-(2-azidoacetylamino)-2-deoxy-3,4-di-O-acetyl-6-O-tetrahydropyran-4-ylcarbonyl-D-mannopyranoside] | 84 | 27 | 63 | 16 | 197 |
| CC(=O)NCCCC[C@H](NC(C)=O)C(=O)Nc1ccc(C(OC2OC(COC(C)=O)C(OC(C)=O)C(OC(C)=O)C2NC(=O)CN=[N+]=[N-])c2ccnn2C)cc1 (stereo partly drawn) [Compound A14, 1-O-(1-(2-Methylpyrazol-3-yl)-1-(4-(2(S),6-diacetamidohexanamido)phenyl)-methyl)-2-(2-azidoacetylamino)-2-deoxy-3,4,6-tri-O-acetyl-D-mannopyranoside] | 89 | 40 | 63 | 19 | 620 |
| CC(=O)NCCCC[C@H](NC(C)=O)C(=O)Nc1ccc(C(OC2OC(COC(=O)Cc3cccnc3)C(OC(C)=O)C(OC(C)=O)C2NC(=O)CN=[N+]=[N-])c2ccnn2C)cc1 (stereo partly drawn) [Compound A17, 1-O-(1-(2-Methylpyrazol-3-yl)-1-(4-(2(S),6-diacetamidohexanamido)phenyl)-methyl)-2-(2-azidoacetylamino)-2-deoxy-3,4-di-O-acetyl-6-O-(pyridin-3-ylacetyl)-D-mannopyranoside] | 77 | 28 | 63 | 10 | 161 |
| CC(=O)NCCCC[C@H](NC(=O)OCc1ccccc1)C(=O)Nc1ccc(C(OC2OC(COC(=O)c3cccnc3)C(OC(C)=O)C(OC(C)=O)C2NC(=O)CN=[N+]=[N-])c2ccnn2C)cc1 (stereo partly drawn) [Compound A13, 1-O-(1-(2-Methylpyrazol-3-yl)-1-(4-(6-acetamido-2(S)-(benzyloxycarbonyl-amino)hexanamido)phenyl)methyl)-2-(2-azidoacetylamino)-2-deoxy-3,4-di-O-acetyl-6-O-(pyridin-3-ylcarbonyl)-D-mannopyranoside] | 76 | 22 | 50 | 12 | 180 |

Reference: US20260200964A1, “MONOSACCARIDES, PHARMACEUTICAL COMPOSITIONS, AND DIAGNOSTIC AND THERAPEUTIC APPLICATIONS” (Surio Therapeutics Co., LTD., priority 2022, published 2026)
